Here are results for eleven compounds from PMC11324126, “Novel coumarin-6-sulfonamide-chalcone hybrids as glutathione transferase P1-1 inhibitors” (PLOS ONE, 2024).

Entries after “also recorded” stand apart in the source; their conditions may differ. Like-named read-outs stand apart in the source and are kept apart here. A value given as a limit tells only on which side of the number the result lay.

Data set [1] has as its target T1, hGSTP1-1 (Homo sapiens, UniProt P09211).
T1 construct: made in house; host or cells: E. coli
Briefly: hGSTP1-1 enzyme activity/inhibition assay (CDNB and GSH substrates, 340 nm). The class given is biochemical. Details: key to Enzyme Inhibition (%) (symbol): *: Coumarin derivative 5e did not exhibit significant inhibition. The conditions noted are these: for inhibition at 10 µM: pH 6.5, 10 μM compound; for inhibition at 10 µM / Enzyme Inhibition (%) / IC50: mean ± SE, triplicate; for IC50: concentration-response inhibition, read-out: IC50 towards hGSTP1-1. The protocol: Determination of hGSTP1-1 activity was carried out in potassium phosphate buffer (100 mM, pH 6.5, 1 mL total volume), at 25°C using as substrates CDNB and GSH. The reaction was monitoring at 340 nm for 120 s, as described previously. For inhibition analysis, coumarin derivatives were dissolved in DMSO (100 μΜ) and added to the assay mixture at 10 μΜ final concentration. The mixture was incubated at 25°C for 1 min, prior adding the enzyme sample. The IC50 values were determined from a graph of the remaining GST activity (%) against inhibitor concentration. GraphPad Prism 9.3.1 (GraphPad Prism Software, Inc.) was used for determination of IC50 values. Kinetic inhibition analysis was performed as previously described with minor modifications. Initial velocities using CDNB as a variable substrate (typically 14–1000 μM) were determined in the presence of constant concentration of GSH (2.5 mM) in the absence and presence of the coumarin derivative 5g (0–50 μM). Initial velocities using GSH as a variable substrate (typically 37.5–3750 μΜ) were determined in the presence of 1 mM CDNB in the absence and presence of the coumarin derivative 5g (0–50 μM). Enzyme assays were performed in triplicates and initial velocities were corrected for spontaneous reaction rates.

Data set [2] addresses T1, hGSTP1-1. Further details: method as in doi:10.5505/tjb.2012.30301. The conditions noted are these: cited from earlier work.
Data set [3] in a line: MTT cytotoxicity assay, DU-145. The conditions noted are these: human, DU-145 cells, mean ± SE, triplicate, read-out: CC50 against DU-145. The class given is cell-based. The protocol: (§1) The MTT colorimetric assay was used to evaluate the in vitro cytotoxicity of 5a, 5f and 5g coumarin derivatives against PC3, DU-145 and MCF-7 cancer cell lines. Cancer cells were inoculated into a 96-well plate (initially at a density of 8 x 10^3 cells/well in 100 μL of culture medium) and were cultivated for 24 h, at 37°C in a CO2 incubator (5%). Different concentrations of 5a, 5f and 5g derivatives (1.5 μΜ to 200 μΜ), were added to cultures and incubated for 48 h. […] The culture medium was then replaced with 100 μL of MTT solution (1 mg/mL) and after 2 h incubation, the solution was aspirated and the produced formazan crystals were dissolved in isopropanol (100 μL). The absorbance was measured at 540 nm. Dose–cell viability graphs were created using GraphPad Prism 9.3.1 and the CC50 values were determined.

A short description of data set [4]: MTT cytotoxicity assay, PC3. The note with it: human, PC3 cells, mean ± SE, triplicate, read-out: CC50 against PC3. The class given is cell-based. As for the experimental part:
as §1

Data set [5] in a line: MTT cytotoxicity assay, MCF-7. The format is cell-based. The conditions noted are these: human, MCF-7 cells, mean ± SE, triplicate, read-out: CC50 against MCF-7. The protocol: as §1
In general terms: Formazan colour is commonly taken as a measure of viable cells.

The next data set deals with HepG2 cells. Further details: method as in PMID 29944015. The note with it: read-out: IC50 towards HepG2 cells; cited from earlier work.
The mark [6] stands for this setting: 10 μM compound, 25°C, pH 6.5, 10 µM.

T1 sequence (P09211 whole entry): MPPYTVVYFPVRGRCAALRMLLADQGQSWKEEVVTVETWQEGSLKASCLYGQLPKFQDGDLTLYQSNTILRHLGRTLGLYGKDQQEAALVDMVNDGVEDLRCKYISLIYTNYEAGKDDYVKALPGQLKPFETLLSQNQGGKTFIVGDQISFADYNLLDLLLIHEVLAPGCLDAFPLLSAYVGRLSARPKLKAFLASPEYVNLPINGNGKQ

On to `O=C(C=Cc1ccc([N+](=O)[O-])cc1)c1ccc(NS(=O)(=O)c2ccc3oc(=O)ccc3c2)cc1` [Compound 5i, N-(4-(3-(4-nitrophenyl)acryloyl)phenyl)-2-oxo-2H-chromene-6-sulfonamide], for which, at hGSTP1-1 [1] (25°C, pH 6.5), the inhibition (as a rule, the relative decrease from the control value, in per cent) at 10 µM was 45.4 ± 0.1%.

For `O=[N+]([O-])c1ccc(S(=O)(=O)Nc2ccc3c(c2)CC(Cc2ccc(Cl)cc2)=C3)cc1` [compound III], at hGSTP1-1 [2], the IC50 (in general, the concentration at which inhibition is half-maximal) is 10.2 µM.

Take `Cc1ccc(C=CC(=O)c2ccc(NS(=O)(=O)c3ccc4oc(=O)ccc4c3)cc2)cc1` [Compound 5b, 2-oxo-N-(4-(3-(p-tolyl)acryloyl)phenyl)-2H-chromene-6-sulfonamide]: at 10 µM the inhibition against hGSTP1-1 [1] (25°C, pH 6.5) was 62.8 ± 0.1%.

For `O=C(C=Cc1ccc(Cl)cc1)c1ccc(NS(=O)(=O)c2ccc3oc(=O)ccc3c2)cc1` [Compound 5g, N-(4-(3-(4-chlorophenyl)acryloyl)phenyl)-2-oxo-2H-chromene-6-sulfonamide], the “Enzyme Inhibition (%)” value at hGSTP1-1 [1] (setting [6]) is 87.5 ± 0.0%. On hGSTP1-1 [1] (CDNB as variable substrate), the “inhibition constant Ki΄ (hGSTP1-1–CDNB complex)” value was 19.25 ± 1.20 μΜ. Besides, the Ki – broadly, the equilibrium dissociation constant of an inhibitor or competing ligand from its target – was 4.69 ± 0.11 µM at hGSTP1-1 [1] (CDNB as variable substrate, read-out: inhibition constant Ki (free hGSTP1-1)) and 3.82 ± 0.16 µM at hGSTP1-1 [1] (GSH as variable substrate, read-out: inhibition constant Ki). Further, the “inhibition constant Ki΄” value at hGSTP1-1 [1] (GSH as variable substrate) worked out at 25.39 ± 0.60 μΜ. Further, the IC50 at hGSTP1-1 [1] is 12.2 ± 0.5 µM. The type of inhibition entry on hGSTP1-1 [1] (kinetic inhibition analysis, Lineweaver-Burk) is reported as “mixed-type inhibitor; also recorded: non-competitive, purely mixed-type inhibitor”. This compound registered an inhibition at 10 µM at hGSTP1-1 [1] (25°C, pH 6.5) greater than 85%. The CC50 – broadly, the concentration giving 50% cytotoxicity – at 48 h in data set [3] worked out at 36.6 ± 2.7 µM; in data set [4], 11.9 ± 2.5 µM; in data set [5], 17.4 ± 2.9 µM.

`O=C(C=Cc1ccc(Br)cc1)c1ccc(NS(=O)(=O)c2ccc3oc(=O)ccc3c2)cc1` [Compound 5h, N-(4-(3-(4-bromophenyl)acryloyl)phenyl)-2-oxo-2H-chromene-6-sulfonamide] came in with an inhibition at 10 µM at hGSTP1-1 [1] (25°C, pH 6.5) of 71.1 ± 0.1%.

As to `COc1cc(C=CC(=O)c2ccc(NS(=O)(=O)c3ccc4oc(=O)ccc4c3)cc2)cc(OC)c1OC` [Compound 5e, 2-oxo-N-(4-(3-(3,4,5-trimethoxyphenyl)acryloyl)phenyl)-2H-chromene-6-sulfonamide], on hGSTP1-1 [1] (10 μM compound, 25°C, pH 6.5), the “Enzyme Inhibition (%) (symbol)” value is on record as “*” and the “Enzyme Inhibition (%)” value is reported as “no activity”.

Turning to `COc1ccc(C=CC(=O)c2ccc(NS(=O)(=O)c3ccc4oc(=O)ccc4c3)cc2)c(OC)c1` [Compound 5d, N-(4-(3-(2,4-dimethoxyphenyl)acryloyl)phenyl)-2-oxo-2H-chromene-6-sulfonamide], at 10 µM the inhibition against hGSTP1-1 [1] (25°C, pH 6.5) was 59.3 ± 0.1%.

For `O=C(C=Cc1ccccc1)c1ccc(NS(=O)(=O)c2ccc3oc(=O)ccc3c2)cc1` [Compound 5a, N-(4-cinnamoylphenyl)-2-oxo-2H-chromene-6-sulfonamide], the “Enzyme Inhibition (%)” value at hGSTP1-1 [1] (setting [6]) turned out to be 84.6 ± 0.1%. In addition, the 50% inhibitory concentration (IC50) at hGSTP1-1 [1] came out at 16.3 µM. Further, on hGSTP1-1 [1] (25°C, pH 6.5), the inhibition at 10 µM is greater than 85%. Further, the CC50 at 48 h in data set [3] stood at 71.4 ± 5.4 µM; in data set [4] it was 25.3 ± 2.2 µM; in data set [5], 46.8 ± 5.1 µM.

With `C/C(=N\Nc1nc(-c2ccccc2)cs1)c1ccc(NS(=O)(=O)c2ccc3oc(=O)ccc3c2)cc1` [compound II], in the data set on HepG2 cells, the IC50 is 3.48 ± 0.28 µM.

At hGSTP1-1 [1] (25°C, pH 6.5), `COc1ccc(C=CC(=O)c2ccc(NS(=O)(=O)c3ccc4oc(=O)ccc4c3)cc2)cc1` [Compound 5c, N-(4-(3-(4-methoxyphenyl)acryloyl)phenyl)-2-oxo-2H-chromene-6-sulfonamide] showed an inhibition at 10 µM of 67%.

Take `O=C(C=Cc1ccc(F)cc1)c1ccc(NS(=O)(=O)c2ccc3oc(=O)ccc3c2)cc1` [Compound 5f, N-(4-(3-(4-fluorophenyl)acryloyl)phenyl)-2-oxo-2H-chromene-6-sulfonamide]: the “Enzyme Inhibition (%)” value on hGSTP1-1 [1] (setting [6]) turned out to be 86.9 ± 0.0%. Besides, the IC50 on hGSTP1-1 [1] came to 12.7 ± 0.7 µM. At hGSTP1-1 [1] (25°C, pH 6.5), the inhibition at 10 µM was greater than 85%. Besides, the CC50 at 48 h in data set [3] turned out to be 47.3 ± 2.7 µM; in data set [4], 14.7 ± 0.9 µM; in data set [5], 24.7 ± 1.5 µM.
